# Measured values from patent US20210283217A1, “NEUROMODULATING COMPOSITIONS AND RELATED THERAPEUTIC METHODS FOR THE TREATMENT OF INFLAMMATORY AND AUTOIMMUNE DISEASES” (Flagship Pioneering Innovations V, Inc., priority 2016, published 2021).
# Columns and labels:
# [1] = Treatment of multiple sclerosis patient, MRI lesions; format: in vivo, human; settings: MS patient; oral 5 mg/day; MRI 3-6 month after treatment initiation
# Experimental: A patient is diagnosed with multiple sclerosis (MS) by MRI criteria of >2 lesions. The patient is treated orally with propranolol at a dose regimen of 5 mg/day. An MRI scan is administered 3-6 month after treatment initiation. Further MRI scans are obtained at intervals of 6-12 months.
# primary human T cells = assay: T cell activation and cytokine secretion assay (LEGENDplex); format: cell-based
# Experimental: Peripheral blood mononuclear cells (PBMCs) were isolated from whole blood by ficoll density separation. Briefly, blood was diluted 1:2 with 0.5 mM EDTA solution in PBS, loaded onto a Ficoll-filled Leucosep tube (Greiner Bio-One), and centrifuged for 20 minutes at 1000×g. After centrifugation, the leukocyte/PBMC layer on top of the separation medium was collected and sequentially washed three times with 0.5 mM EDTA solution in PBS. T cells were isolated from PBMCs using magnetic bead-based separation following vendor specification, e.g., Biolegend MojoSort Human CD4/CD8 Naïve T Cell Isolation Kit protocol. In brief, the PBMCs were labeled with biotinylated antibodies against cell surface receptors for cells not in the population of interest. The labeled cells are then captured by streptavidin-coated magnetic beads and removed by magnetic incubation. The uncaptured cells that flow through the magnetic separation are predominantly comprised of the population of interest, in this instance CD3+ T cells. T cells were stained with a 5 μM solution of Tag-it Violet™ dye (BioLegend) for 20 minutes protected from light. The stain was quenched by incubating the cells in cell culture medium containing 10% FBS (complete media). Stained cells were plated on tissue culture plates and sub-maximally activated with concanavalin A (con A) added to the culture medium. Cells were plated at 0.1×10^6 cells well. […] Cells were collected at 24, 48, and 72 hrs. Supernatants were collected at 24, 48, and 72 hrs and cytokine secretion was analyzed by flow cytometry using a LEGENDplex assay (BioLegend). In brief, following manufacturer's protocol, beads pre-coated with antibodies specific to various cytokines were incubated with cell supernatant. […] The beads were then stained and the captured cytokine composition assessed by flow cytometry.
# NK cells = assay: NK cell ADCC against trastuzumab-coated Her2 expressing target cells; format: cell-based, human; settings: compared with NK cells pre-treated with beta adrenergic antagonist (nadolol or propranolol) prior to the agonist
# Experimental: Primary Natural Killer (NK) cells are isolated from human peripheral blood using a magnetic bead-based separation kit that negatively selects NK cells by sequestering other defined cell types (T, B, monocytes, etc.). Isolated NK cells are incubated with a target cell line, for example a Her2 expressing cancer cell line that has been pre-coated with trastuzumab, an anti-Her2 antibody, at a range of target-to-effector cell ratios. Following antibody-dependent cell cytotoxicity (ADCC)—antibody-mediated killing of the target cells by the NK cells, the number of surviving target cells is assessed by a fluorescent viability stain.
# [2] = tested on: T cells in the lymph node; assay: Lymph node remodeling by hock injection, flow cytometry of lymph node cells; format: in vivo, C57BL/6J mice; settings: hock injection 48.5 nmol followed by quinpirole 0.1 nmol; 24 hours
# Experimental: 24 hours after hock injection, brachial lymph nodes (LN) were harvested in culture medium (RPMI+10% FBS). LNs were transferred to 24-well tissue culture plates containing 0.5 mL LN digestion buffer (RPMI, 2% FBS, collagenase D (3.3 mg/mL), and DNAse I (40 ug/mL)). LN capsules were manually opened with two syringe (26G) needles and the LNs were incubated in digestion buffer for 15 minutes. Digested LNs were filtered with a 40 μM cell strainer and tissues were smashed with the plunger of a 5 mL syringe. Collected cells were washed in culture medium and plated for assays. Total number of viable cells were assessed by staining with viability dye eFluor 780 (eBioscience). Surface markers of various immune cell subsets were analyzed by staining the cells with antibodies for cell identity (CD3, CD4, CD8, CD19), for the inflammatory marker CD69, and the migratory marker CCR7. The cells were then assayed by flow cytometry.
# macrophages = assay: Macrophage activation and cytokine secretion assay (M1/M2 polarization); format: cell-based, human
# Experimental: Peripheral blood mononuclear cells (PBMCs) were isolated from whole blood by ficoll density separation. Briefly, blood was diluted 1:2 with 0.5 mM EDTA solution in PBS, loaded onto a Ficoll-filled Leucosep tube (Greiner Bio-One), and centrifuged for 20 minutes at 1000×g. After centrifugation, the leukocyte/PBMC layer was collected and sequentially washed three times with 0.5 mM EDTA solution in PBS.
# Monocytes (CD14+) were isolated from PBMCs using magnetic bead-based separation following vendor specifications, e.g., Biolegend MojoSort Human CD14 Selection Kit protocol. In brief, PBMCs were labeled with biotinylated antibodies against cell surface receptors for cells not in the population of interest. The labeled cells are then captured by streptavidin-coated magnetic beads and removed by magnetic incubation. The uncaptured cells that flow through the magnetic separation are predominantly comprised of the population of interest, in this case CD14+ monocytes.
# Monocytes were differentiated into macrophages by culturing in DMEM complete medium containing 10% FBS for seven days in the presence of 40 ng/mL human M-CSF. Media was changed on day 1 and day 4. On Day 4, macrophages were polarized to various subtypes as follows: M0—incubated with 40 ng/mL M-CSF; M1—cultured with 40 ng/mL M-CSF, 20 ng/mL IFNγ, and 50 ng/mL LPS; M2—incubated with 40 ng/mL M-CSF, 20 ng/mL IL4, 20 ng/mL IL10, and 20 ng/mL TFGB. On day 7, cells were harvested by scraping them from the tissue culture plates and transferring them to 96-well plates.
# Supernatants were collected at 24, 48, and 72 hrs and cytokine secretion was analyzed by flow cytometry using a LEGENDplex assay (BioLegend). In brief, following manufacturer's protocol, beads that are pre-coated with antibodies specific to various cytokines were incubated with cell supernatant. […] The beads were then stained and the captured cytokine composition assessed by flow cytometry.
# M1 macrophage polarization is defined as increase in production of IL-12, TNF, IL-6, IL-8, IL-1B, MCP-1 and CCL2. Additionally, markers of M1 polarization that can be detected by RNA include Nos2. M2 polarization is defined as increase in IL-10 and/or a decrease in the M1 cytokines listed above. Additionally, markers of M2 polarization that can be detected by RNA include Arg1, IDO, PF4, CCL24, IL10, and IL4Ralpha.
# [3] = low sub-nanomolar concentrations, 72 hours post treatment
# [4] = T cells from two different donors, 72 hours
# [5] = T cells from two different donors, multiple time points
compound,measurement,setting,value
CC(C)NCC(O)COc1cccc2ccccc12 (centres unmarked) [propranolol],Gadolinium (Gd)-enhancing T1 lesions and/or new or enlarging (active) T2 lesions,[1],decrease
"NCCc1ccc(O)c(O)c1 [dopamine, Dopamine]",T cell production of pro-survival cytokine IL-2,"primary human T cells; 24 and 48 hours post-treatment, nanomolar concentrations",increase
same,T cell production of pro-inflammatory cytokine IFNγ,primary human T cells; [3],increase
same,T cell production of pro-inflammatory cytokine IL-5,primary human T cells; [3],increase
same,T cell production of pro-inflammatory cytokine IL-6,primary human T cells; [3],increase
same,T cell production of pro-inflammatory cytokine IL-10,primary human T cells; [3],increase
same,T cell production of pro-inflammatory cytokine IL-13,primary human T cells; [3],increase
CC(C)NCC(O)c1cc(O)cc(O)c1 (centres unmarked) [metaproterenol],ADCC induced by treated NK cells,NK cells,significantly less ADCC
"O=C(CCCN1CCC(O)(c2ccc(Cl)cc2)CC1)c1ccc(F)cc1 [haloperidol, Haloperidol]",quinpirole-induced increase of CCR7+ T cells in the lymph node after pre-treatment with antagonist,[2],inhibited
CC(C)NCC(O)c1ccc(O)c(O)c1 (centres unmarked) [isoproterenol],T cell production of pro-inflammatory cytokine IFNγ (FIG. 6A),primary human T cells; [4],decreased
same,T cell production of pro-inflammatory cytokine IL-10 (FIG. 6C),primary human T cells; [4],decreased
same,T cell production of pro-inflammatory cytokine TNFα (FIG. 6B),primary human T cells; [4],decreased
same,T cell production of pro-inflammatory cytokine IFNγ,primary human T cells; [5],decrease
same,T cell production of pro-inflammatory cytokine IL-10,primary human T cells; [5],decrease
same,T cell production of pro-inflammatory cytokine TNFα,primary human T cells; [5],decrease
same,transcript of NOS2 in macrophages,macrophages; M1 marker,decrease
same,transcript for Arg1 in macrophages,macrophages; M2 marker,increase
same,transcript for IL-10 in macrophages,macrophages; M2 marker,increase
same,macrophage polarization phenotype,"macrophages; monocyte-derived macrophages, dilutions from 10 μM to 1 nM",polarized toward an M2 phenotype
neuropeptide Y,T cell production of cytokine IL-4,"primary human T cells; sub-nanomolar concentrations, 48 hours post-treatment",increase
